Patent publication US20100223839A1, “SYSTEMS AND PROCESSES FOR PRODUCING BIO-FUELS FROM LIGNOCELLULOSIC MATERIALS” (WASHINGTON STATE UNIVERSITY, priority 2009, published 2010)

Test system: Saccharomyces cerevisiae
Assay: Toxic effect of selected bio-oil model compounds on yeast growth (inhibition rate)
Assay type: cell-based
Design: inhibition rate: unit not given here
Settings: for inhibition of yeast growth, summary in words: summary of Table 4
From the text: The nature and the range of lethal concentrations of many of these toxic compounds was not well known. Thus, we carried out tests with model compounds to identify which of them were toxic to yeasts.
The toxic effects of selected bio-oil compounds (acetic acid, propanoic acid, cyclopentanone, 2-furaldehyde, furfuryl alcohol, phenol, eugenol, acetol, 2-(5H)-furanone, stilbene, vanillin, syringaldehyde, o-cresol) on Saccharomyces cerevisiae were studied.

[1] = compound at 25% of CFBO (concentration found in bio-oils; Mallee fast pyrolysis oil, 500° C.)
[2] = compound at 50% of CFBO (concentration found in bio-oils; Mallee fast pyrolysis oil, 500° C.)
[3] = compound at 75% of CFBO (concentration found in bio-oils; Mallee fast pyrolysis oil, 500° C.)
[4] = compound at 100% of CFBO (concentration found in bio-oils; Mallee fast pyrolysis oil, 500° C.)

| Structure (SMILES) | inhibition of yeast growth, summary in words | other results |
| --- | --- | --- |
| C=CCc1ccc(O)c(OC)c1 [Eugenol] | most lethal compounds inhibiting yeast growth |  |
| CC(=O)CO [Acetol] |  | inhibition rate [1]: 44.17; inhibition rate [2]: 77.80; inhibition rate [3]: 78.93; inhibition rate [4]: 80.07 |
| COc1cc(C=O)ccc1O [Vanillin] | most lethal compounds inhibiting yeast growth |  |
| O=Cc1ccco1 [2-furaldehyde] | also inhibitors but their inhibition rate is much lower |  |
| Oc1ccccc1 [Phenol] | most lethal compounds inhibiting yeast growth |  |
| CC(=O)O [Acetic acid] | most lethal compounds inhibiting yeast growth |  |
| CCC(=O)O [Propanoic acid] | most lethal compounds inhibiting yeast growth |  |
| OCc1ccco1 [Furfuryl alcohol] | also inhibitors but their inhibition rate is much lower |  |
| COc1cc(C=O)cc(OC)c1O [Syringaldehyde] | most lethal compounds inhibiting yeast growth |  |
| Cc1ccccc1C [O-xylol] |  | inhibition rate [1]: 5.01; inhibition rate [2]: 5.23; inhibition rate [3]: 5.33; inhibition rate [4]: 5.44 |
| CCCCCCCCCCCCCCC [Petadecane] | also inhibitors but their inhibition rate is much lower |  |
| Oc1ccccc1O [Pyrocatechol] | most lethal compounds inhibiting yeast growth |  |
| CCCCCCCCCCCCCC [Tetradecane] | also inhibitors but their inhibition rate is much lower |  |
| O=C1C=CCO1 [2-(5H)-Furanone] | also inhibitors but their inhibition rate is much lower |  |
| Cc1ccccc1O [O-cresol] |  | inhibition rate [1]: 2.61; inhibition rate [2]: 14.16; inhibition rate [3]: 23.38; inhibition rate [4]: 31.22 |
